Reference: PMC11956013, “Structure–Activity Relationships and Evaluation of 2-(Heteroaryl-cycloalkyl)-1H-indoles as Tauopathy Positron Emission Tomography Radiotracers” (Journal of Medicinal Chemistry, 2025)
Where “and” joins values, the source holds several entries; their conditions need not be identical. Equal values may be shown once. Read-outs that look alike come from different tables or passages of the source. Each block holds one molecule with its values, some of them ahead of it.

Assays:
[1] = target: T1, aggregated tau (mixed 3R/4R-tau) in AD brain tissue homogenates (Homo sapiens, UniProt P10636); assay: In vitro competition (Ki) assay versus [^3H]75, AD brain tissue homogenate; assay type: binding; conditions: n = 3, mean ± SD
Target sequence in this assay (P10636 623-695 limits assumed): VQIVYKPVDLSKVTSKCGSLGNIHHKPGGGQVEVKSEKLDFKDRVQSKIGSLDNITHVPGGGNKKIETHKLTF

[2] = target: T2, aggregated tau (3R-tau) in PiD brain tissue homogenates (Homo sapiens, UniProt P10636); assay: In vitro competition (Ki) assay versus [^3H]75, PiD brain tissue homogenate; assay type: binding; conditions: n = 3, mean ± SD
T2 construct: or only 3R-tau aggregates (PiD middle frontal gyrus); from tissue; host or cells: post-mortem human PiD brain, middle frontal gyrus homogenate
T2 sequence (P10636 1-410 isoform P10636-5): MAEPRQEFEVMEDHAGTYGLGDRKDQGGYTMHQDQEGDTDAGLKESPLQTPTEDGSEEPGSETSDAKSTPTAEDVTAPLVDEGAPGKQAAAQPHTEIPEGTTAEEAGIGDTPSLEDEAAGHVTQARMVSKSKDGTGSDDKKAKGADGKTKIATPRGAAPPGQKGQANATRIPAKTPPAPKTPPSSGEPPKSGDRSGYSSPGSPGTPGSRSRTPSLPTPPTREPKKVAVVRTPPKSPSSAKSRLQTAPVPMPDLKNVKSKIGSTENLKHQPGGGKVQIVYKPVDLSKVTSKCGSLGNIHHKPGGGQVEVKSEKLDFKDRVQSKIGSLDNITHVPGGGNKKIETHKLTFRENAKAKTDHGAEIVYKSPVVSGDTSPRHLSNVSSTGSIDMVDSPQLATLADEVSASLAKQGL

[3] = target: T3, aggregated tau (4R-tau) in PSP brain tissue homogenates (Homo sapiens, UniProt P10636); assay: In vitro competition (Ki) assay versus [^3H]75, PSP brain tissue homogenate; assay type: binding; conditions: n = 3, mean ± SD
T3 construct: from tissue
T3 sequence (P10636 1-441 isoform P10636-8): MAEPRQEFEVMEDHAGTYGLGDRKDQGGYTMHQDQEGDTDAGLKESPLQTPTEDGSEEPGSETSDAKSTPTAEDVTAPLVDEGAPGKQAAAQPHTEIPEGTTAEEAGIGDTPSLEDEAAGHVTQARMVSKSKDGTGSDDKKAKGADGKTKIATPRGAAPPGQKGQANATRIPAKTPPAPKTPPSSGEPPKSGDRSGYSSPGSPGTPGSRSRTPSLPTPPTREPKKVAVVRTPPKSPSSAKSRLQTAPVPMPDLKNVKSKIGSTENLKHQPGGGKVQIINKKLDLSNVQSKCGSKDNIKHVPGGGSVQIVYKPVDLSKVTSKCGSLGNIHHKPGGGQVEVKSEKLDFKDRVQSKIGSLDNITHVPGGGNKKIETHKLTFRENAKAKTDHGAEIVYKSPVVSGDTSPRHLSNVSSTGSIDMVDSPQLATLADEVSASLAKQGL

[4] = target: aggregated tau (4R-tau) in CBD brain tissue homogenates (Homo sapiens, UniProt P10636); assay: In vitro competition (Ki) assay versus [^3H]75, CBD brain tissue homogenate; assay type: binding; set-up: from tissue; host or cells: post-mortem human CBD brain, middle frontal gyrus homogenate
Chain of aggregated tau (4R-tau) in CBD brain tissue homogenates (P10636 1-441 isoform P10636-8): as above

[5] = target: T1, aggregated tau (mixed 3R/4R-tau) in AD brain tissue homogenates; assay: In vitro competition (Ki) assay versus [^3H]7, AD brain tissue homogenate; assay type: binding; conditions: radioligand [^3H]7 ∼1 nM
Target sequence in this assay (P10636 623-695 limits assumed): as the sequence (P10636 623-695 limits assumed) above

[6] = target: T3, aggregated tau (4R-tau) in PSP brain tissue homogenates; assay: In vitro competition (Ki) assay versus [^3H]7, PSP brain tissue homogenate; assay type: binding; conditions: radioligand [^3H]7 ∼1 nM
[7] = target: T1, aggregated tau (mixed 3R/4R-tau) in AD brain tissue homogenates; assay: In vitro competition (Ki) assay versus [^3H]8, AD brain tissue homogenate; assay type: binding; conditions: radioligand [^3H]8 ∼1 nM
Target sequence in this assay (P10636 623-708 limits assumed): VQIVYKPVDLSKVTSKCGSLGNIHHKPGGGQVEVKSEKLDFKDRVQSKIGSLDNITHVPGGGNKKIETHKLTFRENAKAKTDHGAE

[8] = target: T3, aggregated tau (4R-tau) in PSP brain tissue homogenates; assay: In vitro competition (Ki) assay versus [^3H]8, PSP brain tissue homogenate; assay type: binding; conditions: radioligand [^3H]8 ∼1 nM
[9] = target: N neuronal alpha7 (h) (Homo sapiens, UniProt P36544); assay: Eurofins panel: N neuronal alpha7 (h) (antagonist radioligand)
Chain of N neuronal alpha7 (h) (P36544 23-502): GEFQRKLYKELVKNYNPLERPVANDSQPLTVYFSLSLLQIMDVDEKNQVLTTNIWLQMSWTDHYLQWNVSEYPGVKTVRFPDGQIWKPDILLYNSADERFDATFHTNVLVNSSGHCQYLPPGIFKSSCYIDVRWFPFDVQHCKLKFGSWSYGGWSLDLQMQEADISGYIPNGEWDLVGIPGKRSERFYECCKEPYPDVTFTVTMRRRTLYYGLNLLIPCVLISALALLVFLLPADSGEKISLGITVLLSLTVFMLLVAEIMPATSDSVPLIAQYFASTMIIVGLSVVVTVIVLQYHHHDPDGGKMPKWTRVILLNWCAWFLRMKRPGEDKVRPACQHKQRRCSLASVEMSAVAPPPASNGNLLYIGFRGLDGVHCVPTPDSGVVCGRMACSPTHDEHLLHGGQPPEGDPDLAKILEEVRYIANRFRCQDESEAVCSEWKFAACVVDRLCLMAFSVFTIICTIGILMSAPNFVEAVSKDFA

[10] = target: T4, GABAB(B1b/B2) Human GABA B GPCR (Homo sapiens, UniProt Q9UBS5); assay: GABAB(B1b/B2) Human GABA B GPCR Mass Spectrometry Binding (Antagonist Ligand) Assay, Cerep, assay 4699; conditions: Specific binding, reference compound
T4 construct: Eurofins (Cerep) assay 4699
T4 sequence (Q9UBS5 1-844 isoform Q9UBS5-2): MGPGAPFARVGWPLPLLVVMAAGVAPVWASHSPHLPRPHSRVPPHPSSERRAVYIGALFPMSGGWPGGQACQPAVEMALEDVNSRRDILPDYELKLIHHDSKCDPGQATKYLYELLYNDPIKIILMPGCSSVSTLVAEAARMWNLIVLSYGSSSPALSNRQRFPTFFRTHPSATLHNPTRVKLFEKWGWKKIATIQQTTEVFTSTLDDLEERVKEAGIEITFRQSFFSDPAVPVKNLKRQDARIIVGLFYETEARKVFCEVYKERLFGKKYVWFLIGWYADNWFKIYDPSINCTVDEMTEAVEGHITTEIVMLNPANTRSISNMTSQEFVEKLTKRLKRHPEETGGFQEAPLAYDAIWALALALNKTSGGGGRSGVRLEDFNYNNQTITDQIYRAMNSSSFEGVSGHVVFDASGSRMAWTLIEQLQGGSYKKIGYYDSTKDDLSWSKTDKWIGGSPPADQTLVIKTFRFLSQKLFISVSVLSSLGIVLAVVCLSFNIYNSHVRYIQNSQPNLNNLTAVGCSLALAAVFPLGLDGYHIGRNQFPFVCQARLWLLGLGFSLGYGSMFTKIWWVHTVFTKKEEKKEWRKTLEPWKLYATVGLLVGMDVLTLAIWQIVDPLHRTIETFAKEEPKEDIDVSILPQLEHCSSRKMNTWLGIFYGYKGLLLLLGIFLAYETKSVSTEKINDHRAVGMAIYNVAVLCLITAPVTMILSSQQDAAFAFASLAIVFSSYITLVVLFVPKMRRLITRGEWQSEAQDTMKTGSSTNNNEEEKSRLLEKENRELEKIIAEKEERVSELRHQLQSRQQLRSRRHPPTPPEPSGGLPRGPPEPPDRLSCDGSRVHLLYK
T4 sequence (O75899 42-941 partner): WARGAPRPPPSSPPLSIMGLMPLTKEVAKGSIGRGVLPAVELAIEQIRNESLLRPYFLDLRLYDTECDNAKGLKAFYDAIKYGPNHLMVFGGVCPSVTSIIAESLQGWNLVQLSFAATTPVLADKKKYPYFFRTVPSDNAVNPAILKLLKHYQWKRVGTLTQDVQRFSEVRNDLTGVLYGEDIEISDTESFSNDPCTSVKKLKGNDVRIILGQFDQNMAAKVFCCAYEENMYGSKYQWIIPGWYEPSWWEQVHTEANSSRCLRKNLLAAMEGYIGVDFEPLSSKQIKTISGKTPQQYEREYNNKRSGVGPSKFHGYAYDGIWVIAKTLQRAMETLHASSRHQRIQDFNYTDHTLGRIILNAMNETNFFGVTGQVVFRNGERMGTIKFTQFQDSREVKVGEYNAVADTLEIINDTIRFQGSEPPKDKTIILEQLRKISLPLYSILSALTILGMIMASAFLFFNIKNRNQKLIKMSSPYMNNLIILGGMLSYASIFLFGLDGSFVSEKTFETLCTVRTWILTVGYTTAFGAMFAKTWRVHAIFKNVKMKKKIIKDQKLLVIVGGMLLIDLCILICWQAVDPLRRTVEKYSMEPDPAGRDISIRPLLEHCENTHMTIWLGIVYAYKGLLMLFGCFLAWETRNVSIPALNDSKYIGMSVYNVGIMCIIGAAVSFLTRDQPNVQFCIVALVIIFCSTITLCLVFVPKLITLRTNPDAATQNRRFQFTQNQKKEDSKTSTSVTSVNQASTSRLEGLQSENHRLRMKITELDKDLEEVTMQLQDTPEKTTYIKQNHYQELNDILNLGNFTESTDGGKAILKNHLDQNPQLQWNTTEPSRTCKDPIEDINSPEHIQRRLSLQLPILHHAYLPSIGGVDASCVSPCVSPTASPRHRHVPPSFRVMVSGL

[11] = target: GABAA1 (h) (alpha1,beta2,gamma2) (Homo sapiens, UniProt P14867+P47870); assay: GABAA1 (h) (alpha1,beta2,gamma2) (agonist radioligand), Eurofins assay 3051
Chain of GABAA1 (h) (alpha1,beta2,gamma2) (P18507 40-475): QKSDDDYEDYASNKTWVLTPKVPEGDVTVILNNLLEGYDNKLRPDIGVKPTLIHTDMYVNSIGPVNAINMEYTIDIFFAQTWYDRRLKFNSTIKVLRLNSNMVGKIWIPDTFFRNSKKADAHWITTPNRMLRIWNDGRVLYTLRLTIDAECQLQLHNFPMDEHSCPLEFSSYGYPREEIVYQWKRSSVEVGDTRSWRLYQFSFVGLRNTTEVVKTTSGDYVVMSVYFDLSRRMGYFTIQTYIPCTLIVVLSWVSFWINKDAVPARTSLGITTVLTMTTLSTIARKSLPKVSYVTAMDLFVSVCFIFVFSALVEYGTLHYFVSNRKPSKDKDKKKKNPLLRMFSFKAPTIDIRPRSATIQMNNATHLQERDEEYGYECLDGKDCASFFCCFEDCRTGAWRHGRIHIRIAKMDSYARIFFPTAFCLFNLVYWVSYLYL
Chain of GABAA1 (h) (alpha1,beta2,gamma2) (P14867 28-456): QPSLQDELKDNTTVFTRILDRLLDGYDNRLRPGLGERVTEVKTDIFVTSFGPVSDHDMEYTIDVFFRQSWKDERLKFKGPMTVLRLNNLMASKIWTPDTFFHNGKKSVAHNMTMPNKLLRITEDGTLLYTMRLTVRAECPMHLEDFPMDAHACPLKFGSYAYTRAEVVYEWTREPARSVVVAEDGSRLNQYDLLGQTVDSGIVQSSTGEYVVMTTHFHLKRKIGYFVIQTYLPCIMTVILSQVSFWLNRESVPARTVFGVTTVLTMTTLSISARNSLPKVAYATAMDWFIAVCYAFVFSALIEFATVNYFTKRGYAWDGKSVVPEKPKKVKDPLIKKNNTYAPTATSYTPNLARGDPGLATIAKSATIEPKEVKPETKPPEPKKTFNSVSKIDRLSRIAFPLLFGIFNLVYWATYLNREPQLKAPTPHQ
Chain of GABAA1 (h) (alpha1,beta2,gamma2) (P47870 25-512): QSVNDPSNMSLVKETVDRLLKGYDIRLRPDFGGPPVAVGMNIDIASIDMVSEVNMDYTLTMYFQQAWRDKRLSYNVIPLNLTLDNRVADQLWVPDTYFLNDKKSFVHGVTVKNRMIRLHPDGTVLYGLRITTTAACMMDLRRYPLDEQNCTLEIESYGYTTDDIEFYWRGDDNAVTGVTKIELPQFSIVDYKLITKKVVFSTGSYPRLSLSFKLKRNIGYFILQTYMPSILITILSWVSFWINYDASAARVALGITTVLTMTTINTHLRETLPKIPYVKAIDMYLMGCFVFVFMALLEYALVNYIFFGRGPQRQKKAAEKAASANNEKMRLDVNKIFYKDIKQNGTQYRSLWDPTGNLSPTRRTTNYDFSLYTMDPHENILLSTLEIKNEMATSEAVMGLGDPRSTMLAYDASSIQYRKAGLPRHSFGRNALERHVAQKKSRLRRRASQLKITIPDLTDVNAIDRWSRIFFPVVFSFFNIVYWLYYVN

[12] = target: T5, Glutamate (Non-Selective) Rat Ion Channel Glycine (Strychnine-Insensitive) (Rattus norvegicus, UniProt P35439); assay: Glutamate (Non-Selective) Rat Ion Channel Glycine (Strychnine-Insensitive), Mass Spectrometry Binding, assay 5043; conditions: Specific binding, reference compound
T5 construct: Eurofins assay 5043

[13] = AD brain tissue homogenate, radioligand [^3H]75
[14] = PiD brain tissue homogenate, radioligand [^3H]75
[15] = PSP brain tissue homogenate, radioligand [^3H]75
[16] = CBD brain tissue homogenate, radioligand [^3H]75, n = 3, mean ± SD

Ki [1, 13]: 3020 ± 283 nM | Ki [2, 14]: 1970 ± 96 nM
SMILES: Fc1cc(-c2ccc3c(n2)[nH]c2ccncc23)ccn1 [Compound 2]

Ki [1, 13]: 1210 ± 47 nM | Ki [3, 15]: 566 ± 42 nM | Ki [2, 14]: 575 ± 36 nM | Ki [4, 16]: 572 ± 32 nM
SMILES: OCC1CCN(c2ccc(-c3cc4cc(O)ccc4[nH]3)c(F)n2)CC1 [Compound 5]

Ki [5]: 22 nM | Ki [6]: 32 nM
SMILES: Cn1c(-c2cnc(N3CCOCC3)nc2)cc2ccc(F)cc21 [Compound 109, 4-(5-(6-Fluoro-1-methyl-1H-indol-2-yl)pyrimidin-2-yl)morpholine]

Ki [5]: 37 nM | Ki [6]: 23 nM
SMILES: Fc1ccc2cc(-c3cnc(N4CCC(F)(F)CC4)nc3)[nH]c2c1 [Compound 23, 2-(2-(4,4-Difluoropiperidin-1-yl)pyrimidin-5-yl)-6-fluoro-1H-indole]

Ki [1, 13]: ~86 nM and 86 nM | Ki [3, 15]: 123 ± 7 nM | Ki [2, 14]: 124 ± 3 nM | Ki [4, 16]: 106 ± 6 nM
SMILES: CNc1ccc(/C=C/C=C/c2nc3ccc(OCC(O)CF)cc3s2)cn1 (stereo not shown) [Compound 3, florzolotau]

Ki [5]: 11 nM | Ki [6]: 24 nM
SMILES: OC1CCN(c2ncc(-c3cc4ccccc4[nH]3)cn2)CC1 [Compound 52, 1-(5-(1H-Indol-2-yl)pyrimidin-2-yl)piperidin-4-ol]

Ki [7]: 17 nM | Ki [8]: 20 nM
SMILES: Fc1ccc2cc(-c3ncc(N4CCOCC4)cc3F)[nH]c2c1 [Compound 104, 4-(5-Fluoro-6-(6-fluoro-1H-indol-2-yl)pyridin-3-yl)morpholine]

SMILES: Clc1ccc(C2CC3CCC2N3)cn1 (racemic) [(±)epibatidine]
IC50 ([9]; read-out: Concurrent IC50 (Specific binding), reference compound): 145 nM | Ki ([9]; read-out: Concurrent Ki (Specific binding), reference compound): 127 nM | nH, Specific binding ([9]; reference compound): 1.959

Ki [7]: 11 nM | Ki [8]: 12 nM
SMILES: Fc1ccc2cc(-c3cnc(N4CCOCC4)cc3F)[nH]c2c1 [Compound 88, 4-(4-Fluoro-5-(6-fluoro-1H-indol-2-yl)pyridin-2-yl)morpholine]

Ki [5]: 21 nM | Ki [6]: 20 nM
SMILES: OC1CCN(c2ncc(-c3cc4cc(F)ccc4[nH]3)cn2)CC1 [Compound 53, 1-(5-(5-Fluoro-1H-indol-2-yl)pyrimidin-2-yl)piperidin-4-ol]

SMILES: CCOC(OCC)P(=O)(O)CCCNCc1ccc(Cl)c(Cl)c1 [CGP 52432]
nH [10]: 0.6729 | IC50 ([10]; read-out: Concurrent IC50): 40.7 nM | Ki ([10]; read-out: Concurrent Ki): 33.9 nM

Ki [1, 13]: 240 ± 6 nM | Ki [3, 15]: 780 ± 32 nM | Ki [2, 14]: 656 ± 36 nM | Ki [4, 16]: 888 ± 32 nM
SMILES: Nc1c(F)ccc2cnc(-n3ccc4ccncc43)cc12 [Compound 4, florquinitau]

Ki [5]: 120 nM | Ki [6]: 129 nM | Ki [7]: 74 nM | Ki [8]: 76 nM
SMILES: N#Cc1ccc2cc(-c3cnc(N4CC(O)C(F)C4)nc3)[nH]c2c1 (stereo not shown) [Compound 24, 2-(2-(3-Fluoro-4-hydroxypyrrolidin-1-yl)pyrimidin-5-yl)-1H-indole-6-carbonitrile]

SMILES: NCc1cc(=O)[nH]o1 [muscimol]
IC50 [11]: 59.1 nM | Ki [11]: 39.4 nM | nH ([11]; Specific binding, reference compound): 0.6998

Ki [5]: 39 nM | Ki [6]: 32 nM | Ki [7]: 34 nM | Ki [8]: 31 nM
SMILES: OC1CN(c2ncc(-c3cc4ccccc4[nH]3)cn2)CC1F (stereo not shown) [Compound 28, 1-(5-(1H-Indol-2-yl)pyrimidin-2-yl)-4-fluoropyrrolidin-3-ol]

Ki ([1]; AD tissue, +10 μM Ro-41-1040 (MAO-A inhibitor) and 10 μM deprenyl (MAO-B inhibitor)): 1480 ± 53 nM | Ki ([3]; PSP tissue, +10 μM Ro-41-1040 (MAO-A inhibitor) and 10 μM deprenyl (MAO-B inhibitor)): 1860 ± 39 nM | Ki ([2]; PiD tissue, +10 μM Ro-41-1040 (MAO-A inhibitor) and 10 μM deprenyl (MAO-B inhibitor)): 1490 ± 26 nM | Ki [4]: 2130 ± 58 nM
SMILES: Fc1ccc(-c2ccc3c(c2)[nH]c2ccncc23)cn1 [Compound 1, flortaucipir]

SMILES: O=C(O)c1cc(=O)c2c(Cl)cc(Cl)cc2[nH]1 [5,7 dichlorokynurenic acid]
nH [12]: 0.8927 | IC50 ([12]; read-out: Concurrent IC50): 44.5 nM | Ki ([12]; read-out: Concurrent Ki): 20.4 nM

Ki [5]: 45 nM | Ki [6]: 91 nM
SMILES: OC1CCN(c2ncc(-c3cc4cc(F)ccc4o3)cn2)CC1 [Compound 49, 1-(5-(5-Fluorobenzofuran-2-yl)pyrimidin-2-yl)piperidin-4-ol]
